In ChEMBL document CHEMBL1201862, “PubChem BioAssay data set” (2004):
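Briefly, cells in 96-well plates were exposed to five compound concentrations for 48 h, and endpoints were estimated by linear interpolation. Abbreviation: GI50, concentration required for 50% inhibition of growth.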 The source made the active and inactive calls. Rule as the data show it: active = GI50 up to about 1.1 µM and inactive = higher.

Key:
Assay in all cases: NCI anticancer screen, dose series, 48 h
[1] = system: DLD-1
[2] = system: DMS-114
[3] = system: DMS-273
[4] = system: KM-20L2
[5] = system: SNB-78
[6] = system: XF498
[7] = system: HOP-18
[8] = system: BT-549
[9] = system: RXF 631

Measured: GI50

C/C(=N\N(C)C)C(CN(C)C)C(c1ccccc1)c1c(O)c2ccccc2oc1=O (stereo not drawn)
inactive: [1] > 100 µM | [2] > 100 µM | [3] > 100 µM | [4] > 100 µM | [5] > 100 µM | [6] > 100 µM

O=C1NC2OC(CO)C(O)C(O)C2O1 (stereo not drawn)
inactive: [1] > 100 µM | [2] > 100 µM | [3] > 100 µM | [7] > 100 µM | [4] > 100 µM | [5] > 100 µM

C[Si](C)(C)C1(Sc2ccccc2)SCCCS1
inactive: [1] 32 µM | [2] 25.8 µM | [3] 35.2 µM | [5] 51.8 µM | [6] 28.4 µM

CC(=O)Oc1c2c(c(O)c3ccccc13)C(n1cnc3c(ncn3C3OC(CO)C4OC(C)(C)OC43)c1=N)CCC2 (stereo not drawn)
inactive: [1] 13.1 µM | [2] 6.44 µM | [3] 18.1 µM | [7] 20.3 µM | [4] 21.6 µM | [5] 23 µM

O=C(NCCCCCCNC(=O)n1cc(F)c(=O)[nH]c1=O)NCCCOCCOCCOCCOCCOCCOCCOCCOCCOCCOCCOCCOCCOCCOCCOCCOCCOCCOCCOCCOCCOCCCNC(=O)C(O)C(O)C(O)C(O)CO (stereo not drawn)
inactive: [8] 37.7 µM | [1] 9.33 µM | [2] > 100 µM | [3] 33.3 µM | [7] > 100 µM | [4] 22.5 µM | [5] > 100 µM | [6] 15.6 µM

COC(=O)C(=O)C(CC(=O)Nc1cccc(C(F)(F)F)c1)C(=O)OC (stereo not drawn)
inactive: [1] > 100 µM | [2] > 100 µM | [4] > 100 µM | [5] > 100 µM

COC1CC(OS(=O)(=O)c2ccc(C)cc2)C(OS(=O)(=O)c2ccc(C)cc2)C(COS(=O)(=O)c2ccc(C)cc2)O1 (stereo not drawn)
inactive: [1] 8.75 µM | [2] 2.92 µM | [3] 5.32 µM | [7] 2.24 µM | [4] 12.9 µM | [5] 5.46 µM

O=C(/C=C/c1ccccc1)CCN1CCOCC1
inactive: [8] 12.6 µM | [1] 9.29 µM | [2] 9.25 µM | [3] 16.9 µM | [7] 17.7 µM | [4] 15.9 µM | [5] 19 µM | [6] 14.7 µM

CCN(CC)CCCC(C)Nc1ccnc2cc(Cl)ccc12 (stereo not drawn) [CHLOROQUINE PHOSPHATE]
inactive: [1] > 100 µM | [2] 24.3 µM | [3] 28.1 µM | [4] 14.6 µM | [5] 29.9 µM | [6] 17.9 µM

CCSCN(C)c1nc(N(C)C)nc(N(C)C)n1
inactive: [1] 83 µM | [2] 25.9 µM | [3] 38.6 µM | [7] > 100 µM | [4] 55 µM | [5] > 100 µM

COc1ccc2ccc([Se]c3ccc4ccc(OC)cc4c3)cc2c1
inactive: [1] > 100 µM | [2] 64 µM | [3] > 100 µM | [7] 28.9 µM | [4] > 100 µM | [5] 53.6 µM | [6] 43 µM

O=C(Cc1nc2ccccc2o1)C(=O)Nc1ccccc1C(F)(F)F
inactive: [1] > 100 µM | [2] > 100 µM | [3] > 100 µM | [4] > 100 µM | [9] > 100 µM | [5] > 100 µM | [6] > 100 µM

Nc1nc(CC2(O)CCCCC2)cc(-c2ccccc2)n1
inactive: [1] 22.1 µM | [2] 23 µM | [3] > 44.9 µM | [7] 35.5 µM | [4] 17.5 µM | [9] 34.4 µM | [5] > 48.6 µM

CCCCCc1cc(OC(=O)c2c(O)cc(OC)cc2CCCCC)cc(O)c1C(=O)O
inactive: [1] 13 µM | [2] 14.7 µM | [3] 16.1 µM | [4] 18.5 µM | [5] 30.9 µM | [6] 15.3 µM

NC(=O)NC12CC3CC(CC(F)(C3)C1)C2
inactive: [1] > 100 µM | [2] > 100 µM | [3] > 100 µM | [4] > 100 µM | [9] > 100 µM | [5] > 100 µM | [6] > 100 µM

CCc1cccc(C)c1NC(=O)CCc1nnc2s/c(=C\c3cccc4ccccc34)c(=O)n12
inactive: [1] 60 µM | [2] 36 µM | [3] 61.4 µM | [4] > 100 µM | [9] > 100 µM | [5] > 100 µM | [6] > 100 µM

COC(=O)C(C#CCCCCC#CC(NC(=O)OCc1ccccc1)(C(=O)OC)C(F)(F)F)(NC(=O)OCc1ccccc1)C(F)(F)F (stereo not drawn)
inactive: [1] > 100 µM | [2] 28.1 µM | [7] > 100 µM | [4] > 100 µM | [9] > 100 µM | [5] > 100 µM

CC(C#N)c1cn(S(=O)(=O)c2ccccc2)c2ccccc12 (stereo not drawn)
inactive: [1] 55.3 µM | [2] 46.5 µM | [3] 45.6 µM | [4] 67.8 µM | [6] > 100 µM

Cc1cccc(C(C)(C)C)c1NC(=O)CC1Sc2ccccc2NC1=O (stereo not drawn)
inactive: [1] 57.4 µM | [2] 24.8 µM | [3] 32.9 µM | [7] 57.9 µM | [4] > 100 µM | [9] 36.7 µM

O=C(CCN1CCCCC1CO)Nc1ccc2c(c1)C(=O)c1ccc(NC(=O)CCN3CCCCC3CO)cc1C2=O (stereo not drawn)
inactive: [2] 14.1 µM | [3] 5.16 µM | [4] 25.6 µM | [5] 7.36 µM

CCC(CO)Nc1nc2c(c(=O)n(C)c(=O)n2C)n1CCO (stereo not drawn)
inactive: [3] > 100 µM | [4] > 100 µM | [5] 4.91 µM

O=C(Nc1cccc([N+](=O)[O-])c1)C(=O)C(C(=O)c1ccccc1-c1ccccc1)C1OC(=O)c2ccccc21 (stereo not drawn)
inactive: [1] 19.9 µM | [2] 14.5 µM | [4] 23.3 µM | [9] 22 µM | [5] 23.2 µM | [6] 20.4 µM

CCOC(=O)c1cc2c(OC(C)=O)ccc(OC(C)=O)c2s1
inactive: [8] 2.13 µM

CC(C)(C)C(=O)O[C@H]1C=C[C@@H](O)[C@@H]2[C@H]1[C@@H]1C=C[C@H]2C1
inactive: [8] 3.87 µM

CC1=CC(/C=C(\C)CCCc2ccoc2)C2(OC(=O)C(C)=C2O)[C@H]2C1CC[C@@H]2C (stereo partly drawn)
inactive: [1] 25.5 µM | [2] 22.1 µM | [3] > 10 µM | [7] 14.2 µM | [5] 30.5 µM

COC(=O)Nc1nc2cc(Oc3ccc4nc(NC(=O)OC)[nH]c4c3)ccc2[nH]1
inactive: [8] 7.01 µM

COc1cc2c(c3c1C=CCO3)C(=O)c1ccccc1C2=O
inactive: [1] 24.2 µM | [2] 53.1 µM | [3] 49.1 µM | [7] 83.8 µM | [4] 59.4 µM | [5] > 100 µM

COC(=O)[C@@H]1C=C[C@H](OC2OC(COC(C)=O)C(OC(C)=O)C(OC(C)=O)C2OC(C)=O)n2c(=O)c3ccccc3c(=O)n21 (stereo partly drawn)
inactive: [8] 4.8 µM

Cc1ccc2c(c1)C1(C)OC(CC(N)C1O)O2 (stereo not drawn)
inactive: [1] > 100 µM | [2] > 100 µM | [3] > 100 µM | [7] > 100 µM

OCC1c2ccccc2-n2nc(-c3ccccc3)c(O)c21 (stereo not drawn)
inactive: [8] 20 µM

CC(CC(C)(C)[N+](C)(C)C)[N+](C)(C)C (stereo not drawn)
inactive: [8] > 100 µM
